Measured values as given in US11267812B2 (Mirati Therapeutics, Inc., priority 2016, dated 2022).
Read-outs that look alike come from different tables or passages of the source.

Legend:
KRas G12C = KRas G12C (Homo sapiens, UniProt P01116, C118S/C51S/C80L/G12C); assay: KRas G12C Modification Assay (LCMS detection of covalent adduct); type: binding; settings: 5 μM compound, 3 hours
Experimental: A 10 μL aliquot of each protein solution was then transferred to a 384 well microtiter plate. Initial compound stocks were generated at fifty times their desired final assay concentration in DMSO.
Exemplary compounds of Formula (I) were diluted 25-fold into K-Ras Assay Buffer to a final of two times their final concentration. A 10 μL aliquot of each diluted compound solution was then added to each of the protein solutions in the microtiter plate to initiate reaction. […] At each time point, the reactions were quenched with 20 μL of a 25 mM acetic acid solution. […] Once all reactions were quenched, the plates were heat sealed and the samples were injected into a LC/MS system for data acquisition.
Samples were injected in their liquid phase onto a C-3 reverse phase column to remove assay buffer and prepare the samples for mass spectrometer. The proteins were eluted from the column using an acetonitrile gradient and fed directly into the mass analyzer. Initial raw data analysis took place in Agilent MassHunter software immediately post data acquisition.
Raw data analysis of the intact protein was exclusively a deconvolution of the multiple charge states of each protein in solution using a maximum entropy deconvolution provided in Mass Hunter. To minimize complexity, only the data over limited mass ranges were considered for analysis, with a minimum of one Dalton mass step intervals. The heights of all masses identified during raw data analysis were exported to be further analyzed in Spotfire® data analysis software.
Final data analysis was a multistep process in the Spotfire® data analysis software package. Briefly, each protein mass was calculated as a percent of the total signal of that sample, that percentage was then normalized to the percentage of signal of the protein in the absence of reactive compounds. Those normalized signals were reported as normalized percent of control (POC). […] Key: “A”≤25% POC; “B”>25% POC≤50% POC; “C”>50% POC and ND=not determined.

[1] = tested on: Phospho-ERK in NCI-H358 cells expressing KRas G12C; assay: Cellular inhibition of KRas G12C by Phospho-ERK measurement in NCI-H358 cells; type: cell-based; settings: Homo sapiens, read-out: IC50 (pERK(Thr202/Tyr204) normalized with GAPDH)
Outline: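 After 8–12 h attachment, NCI-H358 cells were treated with compounds for 3 h (0.5% DMSO final), fixed, methanol-permeabilized and immunostained. pERK(Thr202/Tyr204) was read by infrared imaging and normalized to GAPDH as percent of DMSO control. IC50 came from a 4-parameter fit.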

[2] = NCI-H358 cells, 3 hours compound treatment

POC (normalized percent of control, KRas G12C modification) (KRas G12C)	SMILES	IC50 [1, 2] [nM]	IC50 ([1]; NCI-H358, 3 h) [nM]
C (“C”>50% POC)	C=CC(=O)N1CCN(c2nc(O[C@H](C)CN(C)CC)nc3c2CCN(c2cc(O)cc4ccccc24)C3)CC1 [Example 131, 1-[4-[2-[(1R)-2-[ethyl(methyl)amino]-1-methyl-ethoxy]-7-(3-hydroxy-1-naphthyl)-6,8-dihydro-5H-pyrido[3,4-d]pyrimidin-4-yl]piperazin-1-yl]prop-2-en-1-one]	1 to 1000	–
C (“C”>50% POC)	C=CC(=O)N1CCN(c2nc(OCCCO)nc3c2CCN(c2cccc4ccccc24)C3)CC1CC#N (stereo not shown) [Example 231, 2-(1-acryloyl-4-(2-(3-hydroxypropoxy)-7-(naphthalen-1-yl)-5,6,7,8-tetrahydropyrido[3,4-d]pyrimidin-4-yl)piperazin-2-yl)acetonitrile]	1 to 1000	–
C (“C”>50% POC)	C=CC(=O)N1CCN(c2nc(OCCCN3CC4CC4C3)nc3c2CCN(c2cc(O)cc4ccccc24)C3)CC1 (stereo not shown) [Example 206, 1-(4-(2-(3-(3-azabicyclo[3.1.0]hexan-3-yl)propoxy)-7-(3-hydroxynaphthalen-1-yl)-5,6,7,8-tetrahydropyrido[3,4-d]pyrimidin-4-yl)piperazin-1-yl)prop-2-en-1-one]	1 to 1000	–
C (“C”>50% POC)	C=CC(=O)N1CCN(c2nc(OC[C@@H]3CCCN3C)nc3c2CCN(c2cccc4ccc(C)cc24)C3)CC1CC#N (stereo partly drawn) [Example 245, 2-[4-[7-(7-methyl-1-naphthyl)-2-[[(2S)-1-methylpyrrolidin-2-yl]methoxy]-6,8-dihydro-5H-pyrido[3,4-d]pyrimidin-4-yl]-1-prop-2-enoyl-piperazin-2-yl]acetonitrile]	1 to 1000	–
C (“C”>50% POC)	C=CC(=O)N1CCN(c2nc(OC[C@@H]3CCCN3CC3CC3)nc3c2CCN(c2cccc4ccccc24)C3)CC1CC#N (stereo partly drawn) [Example 257, 2-(1-acryloyl-4-(2-(((S)-1-(cyclopropylmethyl)pyrrolidin-2-yl)methoxy)-7-(naphthalen-1-yl)-5,6,7,8-tetrahydropyrido[3,4-d]pyrimidin-4-yl)piperazin-2-yl)acetonitrile]	1 to 1000	–
C (“C”>50% POC)	C=CC(=O)N1CCN(c2nc(OC[C@@H]3CCN(C)C3)nc3c2CCN(c2cccc4ccccc24)C3)CC1CC#N (stereo partly drawn) [Example 177, 2-[4-[2-[[(3R)-1-methylpyrrolidin-3-yl]methoxy]-7-(1-naphthyl)-6,8-dihydro-5H-pyrido[3,4-d]pyrimidin-4-yl]-1-prop-2-enoyl-piperazin-2-yl]acetonitrile]	1 to 1000	–
C (“C”>50% POC)	C=CC(=O)N1CCN(c2nc(OCCCN3CCOCC3)nc3c2CCN(c2c(C(F)(F)F)ccc4[nH]ncc24)C3)CC1 [Example 180, 1-[4-[2-(3-morpholinopropoxy)-7-[5-(trifluoromethyl)-1H-indazol-4-yl]-6,8-dihydro-5H-pyrido[3,4-d]pyrimidin-4-yl]piperazin-1-yl]prop-2-en-1-one]	1 to 1000	–
C (“C”>50% POC)	C=CC(=O)N1CCN(c2nc(OC[C@@H]3CCCN3C)nc3c2CCN(c2c(C)ccc4[nH]ncc24)C3)CC1 [Example 155, (S)-1-(4-(7-(5-methyl-1H-indazol-4-yl)-2-((1-methylpyrrolidin-2-yl)methoxy)-5,6,7,8-tetrahydropyrido[3,4-d]pyrimidin-4-yl)piperazin-1-yl)prop-2-en-1-one]	1 to 1000	–
C (“C”>50% POC)	C=CC(=O)N1CCN(c2nc(OCCCN3C[C@H]4C[C@@H]3CO4)nc3c2CCN(c2cc(O)cc4ccccc24)C3)CC1 [Example 185, 1-(4-(2-(3-((1R,4R)-2-oxa-5-azabicyclo[2.2.1]heptan-5-yl)propoxy)-7-(3-hydroxynaphthalen-1-yl)-5,6,7,8-tetrahydropyrido[3,4-d]pyrimidin-4-yl)piperazin-1-yl)prop-2-en-1-one]	1 to 1000	–
C (“C”>50% POC)	C=CC(=O)N1CCN(c2nc(OC[C@@H]3C[C@@H](F)CN3C)nc3c2CCN(c2cccc4ccccc24)C3)CC1CC#N (stereo partly drawn) [Example 220, 2-(1-acryloyl-4-(2-(((2S,4R)-4-fluoro-1-methylpyrrolidin-2-yl)methoxy)-7-(naphthalen-1-yl)-5,6,7,8-tetrahydropyrido[3,4-d]pyrimidin-4-yl)piperazin-2-yl)acetonitrile]	1 to 1000	–
B (“B”>25% POC≤50% POC)	C=CC(=O)N1CCN(c2nc(OC[C@@H]3CCCN3C)nc3c2CCN(c2c(C(F)(F)F)ccc4[nH]ncc24)C3)CC1CC#N (stereo partly drawn) [Example 149, 2-[4-[2-[[(2S)-1-methylpyrrolidin-2-yl]methoxy]-7-[5-(trifluoromethyl)-1H-indazol-4-yl]-6,8-dihydro-5H-pyrido[3,4-d]pyrimidin-4-yl]-1-prop-2-enoyl-piperazin-2-yl]acetonitrile]	1 to 1000	–
C (“C”>50% POC)	C=CC(=O)N1CCN(c2nc(OC[C@@H]3CCCN3C)nc3c2CCN(c2c(C)ccc4[nH]ncc24)C3)CC1CC#N (stereo partly drawn) [Example 148, 2-[4-[7-(5-methyl-1H-indazol-4-yl)-2-[[(2S)-1-methylpyrrolidin-2-yl]methoxy]-6,8-dihydro-5H-pyrido[3,4-d]pyrimidin-4-yl]-1-prop-2-enoyl-piperazin-2-yl]acetonitrile]	1 to 1000	–

SMILES	POC (normalized percent of control, KRas G12C modification) (KRas G12C)	IC50 [1, 2] [nM]	IC50 ([1]; NCI-H358, 3 h) [nM]
C=CC(=O)N1CCN(c2nc(OC[C@@H]3CCCN3C)nc3c2CCN(c2cccc4ccccc24)C3)C[C@@H]1CC#N [Example 234, 2-((S)-1-acryloyl-4-(2-(((S)-1-methylpyrrolidin-2-yl)methoxy)-7-(naphthalen-1-yl)-5,6,7,8-tetrahydropyrido[3,4-d]pyrimidin-4-yl)piperazin-2-yl)acetonitrile]	C (“C”>50% POC)	–	1 to 1000
C=CC(=O)N1CCN(c2nc(OC[C@@H]3CCCN3C)nc3c2CCN(c2cccc4ccccc24)C3)CC1CC#N (stereo partly drawn) [Example 147, 2-[4-[2-[[(2S)-1-methylpyrrolidin-2-yl]methoxy]-7-(1-naphthyl)-6,8-dihydro-5H-pyrido[3,4-d]pyrimidin-4-yl]-1-prop-2-enoyl-piperazin-2-yl]acetonitrile]	C (“C”>50% POC)	–	1 to 1000
